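Grown in 96-well plates, cells were treated for 48 hours with each compound at five concentrations. Insufficient inhibition: endpoint recorded as highest concentration tested. GI50: concentration for 50% inhibition of growth.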 The source made the active and inactive calls. Cut-off read from the data, not from the text of the source: active = GI50 up to about 1.1 µM and inactive = higher.
Tests used:
Experiment in all cases: DTP human tumour cell line panel, 48 h
SN12C = tested on: SN12C
RXF 393 = tested on: RXF 393
OVCAR-8 = tested on: OVCAR-8
KM-20L2 = tested on: KM-20L2
NCI-H23 = tested on: NCI-H23
CCRF-CEM = tested on: CCRF-CEM
M19-MEL = tested on: M19-MEL
CAKI-1 = tested on: CAKI-1
OVCAR-5 = tested on: OVCAR-5
SF-539 = tested on: SF-539
DLD-1 = tested on: DLD-1
MOLT-4 = tested on: MOLT-4
A498 = tested on: A498
LXFL 529 = tested on: LXFL 529
SW-620 = tested on: SW-620
SNB-19 = tested on: SNB-19
KM12 = tested on: KM12
DMS-114 = tested on: DMS-114
HCT-15 = tested on: HCT-15
LOX IMVI = tested on: LOX IMVI
OVCAR-3 = tested on: OVCAR-3
SK-MEL-5 = tested on: SK-MEL-5
XF498 = tested on: XF498
RPMI-8226 = tested on: RPMI-8226
DMS-273 = tested on: DMS-273
RXF 631 = tested on: RXF 631
M14 = tested on: M14
HOP-92 = tested on: HOP-92
U-251 = tested on: U-251
TK-10 = tested on: TK-10
SR = tested on: SR
UACC-62 = tested on: UACC-62
ACHN = tested on: ACHN
SF-295 = tested on: SF-295
SF-268 = tested on: SF-268
UACC-257 = tested on: UACC-257
HCT-116 = tested on: HCT-116
NCI-H522 = tested on: NCI-H522
IGROV-1 = tested on: IGROV-1
HL-60 = tested on: HL-60
HOP-62 = tested on: HOP-62
SK-MEL-28 = tested on: SK-MEL-28
SNB-78 = tested on: SNB-78
EKVX = tested on: EKVX
SK-OV-3 = tested on: SK-OV-3
K562 = tested on: K562
HOP-18 = tested on: HOP-18
786-0 = tested on: 786-0
UO-31 = tested on: UO-31
HT-29 = tested on: HT-29
A549 = tested on: A549
OVCAR-4 = tested on: OVCAR-4
NCI-H460 = tested on: NCI-H460
HCC 2998 = tested on: HCC 2998
SNB-75 = tested on: SNB-75

With `CN(C)CCC(=O)N1CCc2c([nH]c3ccccc23)C1c1cccnc1` (stereo not given) as the compound, how does the GI50 (SN12C) read?
The GI50 was > 100 µM (inactive).

And the GI50 (RXF 393)?
The GI50 was 0.192 µM (active).

What about the GI50 (OVCAR-8) of the same compound?
The GI50 was > 100 µM (inactive).

What about the GI50 (KM-20L2) of the same compound?
The GI50 was > 100 µM (inactive).

What about the GI50 (NCI-H23) of the same compound?
Its GI50 is > 100 µM (inactive).

What about the GI50 (CCRF-CEM) of the same compound?
Its GI50 is > 100 µM (inactive).

What about the GI50 (M19-MEL) of the same compound?
Its GI50 is > 100 µM (inactive).

And the GI50 (CAKI-1)?
Its GI50 is > 100 µM (inactive).

And the GI50 (OVCAR-5)?
Its GI50 is > 100 µM (inactive).

What about the GI50 (SF-539) of the same compound?
Its GI50 is > 100 µM (inactive).

What about the GI50 (DLD-1) of the same compound?
Its GI50 is > 100 µM (inactive).

And the GI50 (MOLT-4)?
The GI50 was > 100 µM (inactive).

And the GI50 (A498)?
The GI50 was > 100 µM (inactive).

What about the GI50 (LXFL 529) of the same compound?
Its GI50 is 34.9 µM (inactive).

What about the GI50 (SW-620) of the same compound?
The GI50 was > 100 µM (inactive).

What about the GI50 (SNB-19) of the same compound?
Its GI50 is > 100 µM (inactive).

What about the GI50 (KM12) of the same compound?
Its GI50 is > 100 µM (inactive).

What about the GI50 (DMS-114) of the same compound?
The GI50 was > 100 µM (inactive).

What about the GI50 (HCT-15) of the same compound?
Its GI50 is greater than 100 µM.

And the GI50 (LOX IMVI)?
The GI50 was > 100 µM (inactive).

And the GI50 (OVCAR-3)?
The GI50 was > 100 µM (inactive).

And the GI50 (SK-MEL-5)?
The GI50 was > 100 µM (inactive).

And the GI50 (XF498)?
The GI50 was > 100 µM (inactive).

And the GI50 (RPMI-8226)?
The GI50 was > 100 µM (inactive).

What about the GI50 (DMS-273) of the same compound?
The GI50 was > 100 µM (inactive).

And the GI50 (RXF 631)?
The GI50 was > 100 µM (inactive).

What about the GI50 (M14) of the same compound?
Its GI50 is > 100 µM (inactive).

What about the GI50 (HOP-92) of the same compound?
Its GI50 is 36.3 µM (inactive).

And the GI50 (U-251)?
The GI50 was > 100 µM (inactive).

What about the GI50 (TK-10) of the same compound?
The GI50 was > 100 µM (inactive).

And the GI50 (SR)?
Its GI50 is > 100 µM (inactive).

What about the GI50 (UACC-62) of the same compound?
Its GI50 is > 100 µM (inactive).

And the GI50 (ACHN)?
The GI50 was > 100 µM (inactive).

What about the GI50 (SF-295) of the same compound?
The GI50 was > 100 µM (inactive).

And the GI50 (SF-268)?
Its GI50 is > 100 µM (inactive).

What about the GI50 (UACC-257) of the same compound?
The GI50 was 28.5 µM (inactive).

What about the GI50 (HCT-116) of the same compound?
Its GI50 is > 100 µM (inactive).

And the GI50 (NCI-H522)?
Its GI50 is > 100 µM (inactive).

What about the GI50 (IGROV-1) of the same compound?
The GI50 was > 100 µM (inactive).

What about the GI50 (HL-60) of the same compound?
Its GI50 is > 100 µM (inactive).

What about the GI50 (HOP-62) of the same compound?
The GI50 was > 100 µM (inactive).

And the GI50 (SK-MEL-28)?
The GI50 was 54.2 µM (inactive).

What about the GI50 (SNB-78) of the same compound?
The GI50 was > 100 µM (inactive).

And the GI50 (EKVX)?
Its GI50 is > 100 µM (inactive).

What about the GI50 (SK-OV-3) of the same compound?
The GI50 was > 100 µM (inactive).

What about the GI50 (K562) of the same compound?
The GI50 was > 100 µM (inactive).

What about the GI50 (HOP-18) of the same compound?
The GI50 was > 100 µM (inactive).

And the GI50 (786-0)?
Its GI50 is > 100 µM (inactive).

What about the GI50 (UO-31) of the same compound?
The GI50 was 41.6 µM (inactive).

What about the GI50 (HT-29) of the same compound?
Its GI50 is > 100 µM (inactive).

And the GI50 (A549)?
Its GI50 is > 100 µM (inactive).

And the GI50 (OVCAR-4)?
The GI50 was > 100 µM (inactive).

What about the GI50 (NCI-H460) of the same compound?
Its GI50 is > 100 µM (inactive).

And the GI50 (HCC 2998)?
The GI50 was > 100 µM (inactive).

What about the GI50 (SNB-75) of the same compound?
Its GI50 is 78.3 µM (inactive).
